Measurements: ChEMBL document CHEMBL1125688, “The synthesis and potassium channel blocking activity of some (4-methanesulfonamidophenoxy)propanolamines as potential class III antiarrhythmic agents” (1991)

Species on record: Cavia porcellus
Test: Compound was evaluated for the increase in duration or cardiac APD (action potential duration) at 90% repolarization, using isolated guinea pig ventricular myocytes at concentration of 10000 nM; No detectable change
Type: functional
Settings: Heart, Ventricular myocyte

In the case of `CC(C)NCC(O)COc1ccc(N(C)S(C)(=O)=O)cc1` (stereo unspecified), the “Delta APD90” value is reported as “No detectable change”.

Species on record: Cavia porcellus
Test: Compound was evaluated for the increase in duration or cardiac APD (action potential duration) at 90% repolarization, using isolated guinea pig ventricular myocytes at concentration of 50000 nM
Type: functional, Heart, Ventricular myocyte
Settings: not given

First: CC(C)NCC(O)c1ccc(NS(C)(=O)=O)cc1 (stereo unspecified) [SOTALOL]
Second: CC(C)(C)NCC(O)COc1ccc(NS(C)(=O)=O)cc1 (stereo unspecified)
The “Delta APD90” value of the first is lower: 30 for the first, 75 for the second.

Species on record: Cavia porcellus
Test: Compound was evaluated for the increase in duration or cardiac APD (action potential duration) at 90% repolarization, using isolated guinea pig ventricular myocytes at concentration of 10000 nM
Type: functional, Heart, Ventricular myocyte
Parameters: unit not given here
Settings: not given

Compared with `CC(C)NCC(O)c1ccc(NS(C)(=O)=O)cc1` (stereo unspecified) [SOTALOL], `CCN(CC)CC(O)COc1ccc(NS(C)(=O)=O)cc1` (stereo unspecified) is higher in “Delta APD90” value: 75 for the first, 85 for the second.

Going from `CS(=O)(=O)Nc1ccc(OCC(O)CNCCc2ccccc2)cc1` (stereo unspecified) to `CS(=O)(=O)Nc1ccc(OCC(O)CNCCc2ccc(Cl)cc2)cc1` (stereo unspecified), the “Delta APD90” value rises from 80 to 90.

Going from `CS(=O)(=O)Nc1ccc(OCC(O)CN2CCN(c3ccccc3)CC2)cc1` (stereo unspecified) to `COc1ccc(CCNCC(O)COc2ccc(NS(C)(=O)=O)cc2)cc1OC` (stereo unspecified), the “Delta APD90” value falls from 100 to 80.

Species on record: Cavia porcellus
Test: Compound was evaluated for the increase in duration or cardiac APD (action potential duration) at 90% repolarization, using isolated guinea pig ventricular myocytes at concentration of 100 nM
Type: functional, Heart, Ventricular myocyte
Parameters: unit not given here
Settings: not given

Going from `CN(CCCc1ccccc1)CC(O)COc1ccc(NS(C)(=O)=O)cc1` (stereo unspecified) to `CN(CCc1ccccc1)CC(O)COc1ccc(NS(C)(=O)=O)cc1` (stereo unspecified), the “Delta APD90” value falls from 70 to 48.

Going from `COc1ccc(CCN(C)CC(O)COc2ccc(NS(C)(=O)=O)cc2)cc1OC` (stereo unspecified) to `COc1ccc(CCN(CC(O)COc2ccc(NS(C)(=O)=O)cc2)C(C)C)cc1OC` (stereo unspecified), the “Delta APD90” value rises from 40 to 65.

First: CN(CCc1ccc(Cl)c(Cl)c1)CC(O)COc1ccc(NS(C)(=O)=O)cc1 (stereo unspecified)
Second: CN(C/C=C/c1ccccc1)CC(O)COc1ccc(NS(C)(=O)=O)cc1 (stereo unspecified)
The “Delta APD90” value of the first is lower: 85 for the first, 100 for the second.

Going from `CN(CCOc1ccc(NS(C)(=O)=O)cc1)CCc1ccc(NS(C)(=O)=O)cc1` [DOFETILIDE] to `CS(=O)(=O)Nc1ccc(OCC(O)CN2CCc3ccccc3C2)cc1` (stereo unspecified), the “Delta APD90” value falls from 63 to 60.

In the case of `CS(=O)(=O)Nc1ccc(OCC(O)CN2CCC(c3ccccc3)CC2)cc1` (stereo unspecified), the “Delta APD90” value is reported as 48.

Species on record: Cavia porcellus
Test: Compound was evaluated for the increase in duration or cardiac APD (action potential duration) at 90% repolarization, using isolated guinea pig ventricular myocytes at concentration of 10 nM
Type: functional, Heart, Ventricular myocyte
Settings: not given

`CS(=O)(=O)Nc1ccc(OCC(O)CN2CCC(c3ccc(Cl)cc3)CC2)cc1` (stereo unspecified) and `CS(=O)(=O)Nc1ccc(OCC(O)CN2CCC(c3ccc(C(F)(F)F)cc3)CC2)cc1` (stereo unspecified) are the same in “Delta APD90” value: 100 for the first, 100 for the second.

For `CN(CCc1ccc(Cl)c(Cl)c1)CC(O)COc1ccc(NS(C)(=O)=O)cc1` (stereo unspecified), the “Delta APD90” value was 42.

Species on record: Cavia porcellus
Test: Compound was evaluated for the increase in duration or cardiac APD (action potential duration) at 90% repolarization, using isolated guinea pig ventricular myocytes at concentration of 250 nM
Type: functional, Heart, Ventricular myocyte
Settings: not given

With `CN(CCOc1ccc(NS(C)(=O)=O)cc1)CCc1ccc(NS(C)(=O)=O)cc1` [DOFETILIDE] the “Delta APD90” value was 100.

Species on record: Cavia porcellus
Test: Compound was evaluated for the increase in duration or cardiac APD (action potential duration) at 90% repolarization, using isolated guinea pig ventricular myocytes at concentration of 10000 nM; no detectable change
Type: functional
Settings: Heart, Ventricular myocyte

With `CC(C)NCC(O)COc1ccc(NS(C)(=O)=O)cc1` (stereo unspecified) the “Delta APD90” value was “No detectable change”.
For `CN(c1ccc(OCC(O)CNCCc2ccccc2)cc1)S(C)(=O)=O` (stereo unspecified), the “Delta APD90” value was “No detectable change”.
`CNCC(O)COc1ccc(NS(C)(=O)=O)cc1` (stereo unspecified) was tested, and the “Delta APD90” value was “No detectable change”.

Species on record: Cavia porcellus
Test: Compound was evaluated for the increase in duration or cardiac APD (action potential duration) at 90% repolarization, using isolated guinea pig ventricular myocytes at concentration of 1 nM
Type: functional, Heart, Ventricular myocyte
Settings: not given

Going from `CS(=O)(=O)Nc1ccc(OCC(O)CN2CCC(c3ccc(Cl)cc3)CC2)cc1` (stereo unspecified) to `CS(=O)(=O)Nc1ccc(OCC(O)CN2CCC(c3ccc(C(F)(F)F)cc3)CC2)cc1` (stereo unspecified), the “Delta APD90” value falls from 50 to 40.

In the case of `CN(CCc1ccc(Cl)c(Cl)c1)CC(O)COc1ccc(NS(C)(=O)=O)cc1` (stereo unspecified), the “Delta APD90” value is reported as 20.

Species on record: Cavia porcellus
Test: Compound was evaluated for the increase in duration or cardiac APD (action potential duration) at 90% repolarization, using isolated guinea pig ventricular myocytes at concentration of 50 nM
Type: functional, Heart, Ventricular myocyte
Settings: not given

Compared with `CN(CCOc1ccc(NS(C)(=O)=O)cc1)CCc1ccc(NS(C)(=O)=O)cc1` [DOFETILIDE], `CN(C/C=C/c1ccccc1)CC(O)COc1ccc(NS(C)(=O)=O)cc1` (stereo unspecified) is higher in “Delta APD90” value: 23 for the first, 50 for the second.

For `CS(=O)(=O)Nc1ccc(OCC(O)CN2CCC(c3ccc(C(F)(F)F)cc3)CC2)cc1` (stereo unspecified), the “Delta APD90” value was 100.

Species on record: Cavia porcellus
Test: Compound was evaluated for the increase in duration or cardiac APD (action potential duration) at 90% repolarization, using isolated guinea pig ventricular myocytes at concentration of 1000 nM
Type: functional, Heart, Ventricular myocyte
Parameters: unit not given here
Settings: not given

`COc1ccc(CCN(C)CC(O)COc2ccc(NS(C)(=O)=O)cc2)cc1OC` (stereo unspecified) and `COc1ccc(CCN(CC(O)COc2ccc(NS(C)(=O)=O)cc2)C(C)C)cc1OC` (stereo unspecified) are the same in “Delta APD90” value: 100 for the first, 100 for the second.

Compared with `CN(CCc1ccccc1)CC(O)COc1ccc(NS(C)(=O)=O)cc1` (stereo unspecified), `CCN(CC)CC(O)COc1ccc(NS(C)(=O)=O)cc1` (stereo unspecified) is lower in “Delta APD90” value: 88 for the first, 25 for the second.

First: CS(=O)(=O)Nc1ccc(OCC(O)CN2CCN(c3ccccc3)CC2)cc1 (stereo unspecified)
Second: CS(=O)(=O)Nc1ccc(OCC(O)CN2CCC(c3ccccc3)CC2)cc1 (stereo unspecified)
The “Delta APD90” value of the first is lower: 78 for the first, 100 for the second.

First: COc1ccc(CCNCC(O)COc2ccc(NS(C)(=O)=O)cc2)cc1OC (stereo unspecified)
Second: CS(=O)(=O)Nc1cccc(OCC(O)CN2CCC(c3ccccc3)CC2)c1 (stereo unspecified)
The “Delta APD90” value of the first is lower: 15 for the first, 48 for the second.

With `O=C(O)c1ccc(OCC(O)CN2CCC(c3ccccc3)CC2)cc1` (stereo unspecified) the “Delta APD90” value was 36.

Species on record: Cavia porcellus
Test: Compound was evaluated for the increase in duration or cardiac APD (action potential duration) at 90% repolarization, using isolated guinea pig ventricular myocytes at concentration of 50000 nM; no detectable change
Type: functional
Settings: Heart, Ventricular myocyte

`CNCC(O)COc1ccc(NS(C)(=O)=O)cc1` (stereo unspecified) was tested, and the “Delta APD90” value was “No detectable change”.

Species on record: Cavia porcellus
Test: Compound was evaluated for the increase in duration or cardiac APD (action potential duration) at 90% repolarization, using isolated guinea pig ventricular myocytes at concentration of 75000 nM
Type: functional, Heart, Ventricular myocyte
Settings: not given

`CC(C)(C)NCC(O)COc1ccc(NS(C)(=O)=O)cc1` (stereo unspecified) was tested, and the “Delta APD90” value was 75.

Species on record: Cavia porcellus
Test: Compound was evaluated for the increase in duration or cardiac APD (action potential duration) at 90% repolarization, using isolated guinea pig ventricular myocytes at concentration of 33000 nM; no detectable change
Type: functional
Settings: Heart, Ventricular myocyte

With `CN(c1ccc(OCC(O)CNCCc2ccccc2)cc1)S(C)(=O)=O` (stereo unspecified) the “Delta APD90” value was “No detectable change”.

Species on record: Cavia porcellus
Test: Compound was evaluated for the increase in duration or cardiac APD (action potential duration) at 90% repolarization, using isolated guinea pig ventricular myocytes at concentration of 33000 nM
Type: functional, Heart, Ventricular myocyte
Settings: not given

Going from `CC(C)(C)NCC(O)COc1ccc(NS(C)(=O)=O)cc1` (stereo unspecified) to `CC(C)NCC(O)COc1ccc(NS(C)(=O)=O)cc1` (stereo unspecified), the “Delta APD90” value falls from 40 to 33.

Species on record: Cavia porcellus
Test: Compound was evaluated for the increase in duration or cardiac APD (action potential duration) at 90% repolarization, using isolated guinea pig ventricular myocytes at concentration of 33000 nM; No detectable change
Type: functional
Settings: Heart, Ventricular myocyte

For `CC(C)NCC(O)COc1ccc(N(C)S(C)(=O)=O)cc1` (stereo unspecified), the “Delta APD90” value was “No detectable change”.
